8 molecules from PubChem BioAssay (NCI) can be followed below.

Some test systems named below: NCI-H226 lung; T-47D breast; NCI/ADR-RES ovarian; UACC-62 melanoma; MDA-MB-435; SK-MEL-5 melanoma; MALME-3M melanoma; HOP-92 NSCLC; HS 578T breast; MOLT-4 leukemia.
Holding throughout (assay): NCI tumour cell line growth inhibition, 48 h

Structures are written as SMILES.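 Exposure lasted 48 hours, with cells grown in 96-well plates and compounds tested at five concentrations. At the GI50, growth is halved. TGI is the concentration that stops growth completely.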

Take `CCN1Cc2c(/C=C/c3ccccc3)nc3ccc(OC)cc3c2N(c2cccc(Cl)c2)C1`: the GI50 with NCI-H226 lung was 1.65 µM; in the assay on T-47D breast it was 1.74 µM; with NCI/ADR-RES ovarian, 2.1 µM; in the assay with UACC-62 melanoma, 1.49 µM; in the assay on MDA-MB-435, 1.81 µM; with SK-MEL-5 melanoma it was 1.59 µM. The GI50 in the assay on MALME-3M melanoma was 1.68 µM; in the assay with HOP-92 NSCLC, 1.62 µM; in the assay on HS 578T breast it was 1.75 µM; with MOLT-4 leukemia, 1.45 µM. The TGI is 3.5 µM with NCI-H226 lung; 4.18 µM in the assay on T-47D breast; 5.22 µM with NCI/ADR-RES ovarian; 3.06 µM in the assay on UACC-62 melanoma; 3.7 µM in the assay on MDA-MB-435; 3 µM in the assay with SK-MEL-5 melanoma. Further, the TGI came out at 3.52 µM in the assay on MALME-3M melanoma, 3.77 µM with HOP-92 NSCLC, 4.88 µM in the assay with HS 578T breast and 5.02 µM in the assay with MOLT-4 leukemia.

Consider `Nc1nc(N)c2cc(S(=O)(=O)c3ccccc3)ccc2n1`, for which the GI50 was 5.87 µM in the assay with NCI-H226 lung; 9.57 µM in the assay with T-47D breast; 3.52 µM with NCI/ADR-RES ovarian; 0.511 µM in the assay with UACC-62 melanoma; 0.487 µM with MDA-MB-435; 1.14 µM in the assay on SK-MEL-5 melanoma. The GI50 in the assay on MALME-3M melanoma was 4.97 µM; in the assay with HOP-92 NSCLC, 4.64 µM; with HS 578T breast, 6.93 µM; in the assay with MOLT-4 leukemia, 4.31 µM. Further, the TGI with NCI-H226 lung, in the assay on T-47D breast, in the assay with NCI/ADR-RES ovarian, in the assay with UACC-62 melanoma, in the assay with MDA-MB-435 and with SK-MEL-5 melanoma was > 100 µM throughout. Besides, the TGI is > 100 µM in the assay on MALME-3M melanoma, 72.8 µM in the assay with HOP-92 NSCLC, > 100 µM with HS 578T breast and > 100 µM in the assay with MOLT-4 leukemia.

Take `Clc1ccc2c(NCCNc3nc(N4CCCCC4)nc4ccccc34)ccnc2c1`: the GI50 in the assay with NCI-H226 lung was 1.92 µM; in the assay on T-47D breast, 2.17 µM; in the assay with NCI/ADR-RES ovarian, 3.5 µM; in the assay on UACC-62 melanoma, 1.95 µM; with MDA-MB-435, 1.74 µM; with SK-MEL-5 melanoma, 1.86 µM. Besides, the GI50 in the assay on MALME-3M melanoma is 2.05 µM; in the assay with HOP-92 NSCLC it was 1.62 µM; in the assay with HS 578T breast, 3.04 µM; with MOLT-4 leukemia, 2.29 µM. Further, the TGI was 4.05 µM in the assay on NCI-H226 lung; 6.11 µM with T-47D breast; > 100 µM in the assay on NCI/ADR-RES ovarian; 3.7 µM in the assay on UACC-62 melanoma; 3.43 µM in the assay on MDA-MB-435; 3.31 µM in the assay with SK-MEL-5 melanoma. For the same molecule, the TGI in the assay with MALME-3M melanoma stood at 4.05 µM; in the assay on HOP-92 NSCLC it was 3.24 µM; in the assay on HS 578T breast it was 8.39 µM; in the assay on MOLT-4 leukemia, 11.8 µM.

Consider `Cn1c(=S)c2[nH]c(SCc3cccnc3)nc2n(C)c1=O`, for which the TGI in the assay on NCI-H226 lung, in the assay with T-47D breast, in the assay with NCI/ADR-RES ovarian, in the assay on UACC-62 melanoma, with MDA-MB-435 and with SK-MEL-5 melanoma was > 100 µM throughout. The TGI in the assay with MALME-3M melanoma, in the assay on HOP-92 NSCLC, in the assay on HS 578T breast and in the assay with MOLT-4 leukemia was > 100 µM throughout.

Turning to `CCOc1cc(CCNC)c2c(ccc3ccc(OC)c(O)c32)c1OC`, the TGI was 46.9 µM in the assay with NCI-H226 lung; 51.1 µM with T-47D breast; 48.2 µM with NCI/ADR-RES ovarian; 31.1 µM in the assay with UACC-62 melanoma; 27.5 µM with MDA-MB-435; 26.1 µM in the assay on SK-MEL-5 melanoma. Further, the TGI in the assay with MALME-3M melanoma is 20 µM; with HOP-92 NSCLC, 25.2 µM; with HS 578T breast, 45 µM; in the assay with MOLT-4 leukemia, 26.4 µM.

Consider `NC(=O)/C=C/c1c[nH]c2nccnc12`, for which the TGI in the assay on NCI-H226 lung is 5.72 µM; in the assay on T-47D breast it was 23.5 µM; in the assay on NCI/ADR-RES ovarian it was > 29.1 µM; in the assay on UACC-62 melanoma, 8.85 µM; in the assay with MDA-MB-435 it was 13.2 µM; in the assay on SK-MEL-5 melanoma it was 10.9 µM. Further, the TGI was 2.18 µM with MALME-3M melanoma, > 28.8 µM in the assay with HOP-92 NSCLC, 4.6 µM with HS 578T breast and 1.38 µM in the assay with MOLT-4 leukemia.

For the molecule `COc1ccc2c3c1OC1C4(CCC5C(C2)N(CC2CC2)CCC351)OCCO4` (stereo not given), the TGI with NCI-H226 lung, in the assay with T-47D breast, in the assay with NCI/ADR-RES ovarian, with UACC-62 melanoma, in the assay on MDA-MB-435 and in the assay on SK-MEL-5 melanoma was > 100 µM each time. Moreover, the TGI with MALME-3M melanoma, in the assay with HOP-92 NSCLC, in the assay on HS 578T breast and in the assay with MOLT-4 leukemia was > 100 µM throughout.

Turning to `COC(=O)C(Br)(C(=O)OC)C(Br)C(Br)C(Br)c1ccccc1` (stereo not given), the GI50 is 2.19 µM with NCI-H226 lung; 2.47 µM in the assay on T-47D breast; 3.28 µM with NCI/ADR-RES ovarian; 2.28 µM with UACC-62 melanoma; 2.48 µM in the assay with MDA-MB-435; 2.71 µM with SK-MEL-5 melanoma. Further, the GI50 is 2.09 µM with MALME-3M melanoma, 3.42 µM in the assay with HOP-92 NSCLC, 6.25 µM in the assay on HS 578T breast and 4.24 µM in the assay on MOLT-4 leukemia. Besides, the TGI with NCI-H226 lung was found to be 5.71 µM; in the assay with T-47D breast, 8.06 µM; in the assay on NCI/ADR-RES ovarian, 9.99 µM; with UACC-62 melanoma, 6.56 µM; in the assay on MDA-MB-435 it was 7.36 µM; with SK-MEL-5 melanoma, 7.27 µM. Moreover, the TGI in the assay on MALME-3M melanoma worked out at 4.46 µM; in the assay on HOP-92 NSCLC, 12.3 µM; in the assay on HS 578T breast, 15 µM; in the assay on MOLT-4 leukemia it was 19.7 µM.
